Columns and labels:
Format in all cases: cell-based
[1] = target: T1, human TLR9 (Homo sapiens, UniProt Q9NR96); test: TLR9 inhibition reporter assay (HEK-Blue SEAP); settings: HEK-Blue cells overexpressing human TLR9, ODN2006 5 nM, 22 hour incubation
T1 construct: host or cells: HEK-Blue cells (HEK293-derived reporter line)
T1 sequence (Q9NR96 26-1032): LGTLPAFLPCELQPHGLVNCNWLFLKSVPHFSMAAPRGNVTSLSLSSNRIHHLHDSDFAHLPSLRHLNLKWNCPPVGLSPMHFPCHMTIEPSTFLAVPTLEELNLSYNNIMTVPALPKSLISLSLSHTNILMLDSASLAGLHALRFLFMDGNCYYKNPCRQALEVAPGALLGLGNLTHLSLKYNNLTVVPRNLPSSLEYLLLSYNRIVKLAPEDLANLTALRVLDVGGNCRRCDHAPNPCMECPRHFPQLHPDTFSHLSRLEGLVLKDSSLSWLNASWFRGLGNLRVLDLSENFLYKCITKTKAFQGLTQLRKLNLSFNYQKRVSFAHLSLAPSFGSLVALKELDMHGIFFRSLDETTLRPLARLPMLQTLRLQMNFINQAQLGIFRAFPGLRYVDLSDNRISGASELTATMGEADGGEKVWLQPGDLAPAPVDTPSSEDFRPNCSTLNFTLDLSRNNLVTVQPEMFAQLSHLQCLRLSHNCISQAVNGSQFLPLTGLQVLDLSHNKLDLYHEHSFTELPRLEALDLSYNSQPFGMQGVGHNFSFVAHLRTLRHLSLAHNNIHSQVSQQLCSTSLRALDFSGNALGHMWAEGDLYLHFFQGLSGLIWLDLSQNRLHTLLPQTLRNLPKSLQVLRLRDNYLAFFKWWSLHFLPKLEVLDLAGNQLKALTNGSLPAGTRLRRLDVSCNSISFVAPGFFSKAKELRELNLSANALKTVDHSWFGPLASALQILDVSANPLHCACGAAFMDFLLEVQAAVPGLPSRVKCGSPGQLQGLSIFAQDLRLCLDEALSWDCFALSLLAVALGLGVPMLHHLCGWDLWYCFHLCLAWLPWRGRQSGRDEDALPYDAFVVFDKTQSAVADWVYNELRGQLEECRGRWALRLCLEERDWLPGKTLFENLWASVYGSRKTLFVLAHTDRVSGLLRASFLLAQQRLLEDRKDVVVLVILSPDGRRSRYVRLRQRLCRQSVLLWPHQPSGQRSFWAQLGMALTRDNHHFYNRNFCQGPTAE
Procedure: (§1) TLR7/8/9 Inhibition Reporter Assays
(§2) HEK-Blue™-cells (Invivogen) overexpressing human TLR7, TLR8 or TLR9 receptors were used for screening inhibitors of these receptors using an inducible SEAP (secreted embryonic alkaline phosphatase) reporter gene under the control of the IFN-β minimal promoter fused to five NF-κB and AP-1-binding sites. Briefly, cells are seeded into Greiner 384 well plates (15000 cells per well for TLR7, 20,000 for TLR8 and 25,000 for TLR9) and then treated with test compounds in DMSO to yield a final dose response concentration range of 0.05 nM-50 μM. After a 30 minute compound pre-treatment at room temperature, the cells are then stimulated with a TLR7 ligand (gardiquimod at a final concentration of 7.5 μM), TLR8 ligand (R848 at a final concentration of 15.9 μM) or TLR9 ligand (ODN2006 at a final concentration of 5 nM) to activate NF-κB and AP-1 which induce the production of SEAP. After a 22 hour incubation at 37° C., 5% CO2, SEAP levels are determined with the addition of HEK-Blue™ Detection reagent (Invivogen), a cell culture medium that allows for detection of SEAP, according to manufacturer's specifications. The percent inhibition is determined as the % reduction in the HEK-Blue signal present in wells treated with agonist plus DMSO alone compared to wells treated with a known inhibitor.

[2] = target: T2, human TLR8 (Homo sapiens, UniProt Q9NR97); test: TLR8 inhibition reporter assay (HEK-Blue SEAP); settings: HEK-Blue cells overexpressing human TLR8, R848 15.9 μM, 22 hour incubation
T2 construct: host or cells: HEK-Blue cells (HEK293-derived reporter line)
T2 sequence (Q9NR97 27-1041): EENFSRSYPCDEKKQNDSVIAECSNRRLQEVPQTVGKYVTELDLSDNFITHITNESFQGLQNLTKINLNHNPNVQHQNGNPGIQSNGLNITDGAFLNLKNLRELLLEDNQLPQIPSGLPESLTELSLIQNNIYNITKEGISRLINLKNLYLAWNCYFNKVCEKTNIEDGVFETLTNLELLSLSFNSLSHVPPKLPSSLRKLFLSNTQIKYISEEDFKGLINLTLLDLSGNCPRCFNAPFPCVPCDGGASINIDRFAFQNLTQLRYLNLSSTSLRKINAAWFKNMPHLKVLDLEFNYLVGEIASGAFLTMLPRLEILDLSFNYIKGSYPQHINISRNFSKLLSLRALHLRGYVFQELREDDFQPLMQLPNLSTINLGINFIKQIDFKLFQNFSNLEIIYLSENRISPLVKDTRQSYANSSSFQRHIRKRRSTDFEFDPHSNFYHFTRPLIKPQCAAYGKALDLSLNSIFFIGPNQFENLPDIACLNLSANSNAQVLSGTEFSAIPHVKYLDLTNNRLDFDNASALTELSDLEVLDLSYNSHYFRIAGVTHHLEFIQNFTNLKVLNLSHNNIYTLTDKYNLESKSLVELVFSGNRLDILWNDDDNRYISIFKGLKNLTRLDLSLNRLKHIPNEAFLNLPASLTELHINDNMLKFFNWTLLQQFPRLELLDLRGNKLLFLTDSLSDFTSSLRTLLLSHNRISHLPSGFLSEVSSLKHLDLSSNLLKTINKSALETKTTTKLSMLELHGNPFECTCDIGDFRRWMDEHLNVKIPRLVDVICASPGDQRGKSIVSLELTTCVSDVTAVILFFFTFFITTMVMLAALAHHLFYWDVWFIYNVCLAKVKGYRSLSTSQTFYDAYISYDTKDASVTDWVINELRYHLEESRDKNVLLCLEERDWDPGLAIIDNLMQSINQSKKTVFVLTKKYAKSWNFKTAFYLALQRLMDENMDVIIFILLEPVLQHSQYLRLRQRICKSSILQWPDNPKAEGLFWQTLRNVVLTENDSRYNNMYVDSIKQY
Procedure: as §1, §2

[3] = target: T3, human TLR7 (Homo sapiens, UniProt Q9NYK1); test: TLR7 inhibition reporter assay (HEK-Blue SEAP); settings: HEK-Blue cells overexpressing human TLR7, gardiquimod 7.5 μM, 22 hour incubation
T3 construct: host or cells: HEK-Blue cells (HEK293-derived reporter line)
T3 sequence (Q9NYK1 27-1049): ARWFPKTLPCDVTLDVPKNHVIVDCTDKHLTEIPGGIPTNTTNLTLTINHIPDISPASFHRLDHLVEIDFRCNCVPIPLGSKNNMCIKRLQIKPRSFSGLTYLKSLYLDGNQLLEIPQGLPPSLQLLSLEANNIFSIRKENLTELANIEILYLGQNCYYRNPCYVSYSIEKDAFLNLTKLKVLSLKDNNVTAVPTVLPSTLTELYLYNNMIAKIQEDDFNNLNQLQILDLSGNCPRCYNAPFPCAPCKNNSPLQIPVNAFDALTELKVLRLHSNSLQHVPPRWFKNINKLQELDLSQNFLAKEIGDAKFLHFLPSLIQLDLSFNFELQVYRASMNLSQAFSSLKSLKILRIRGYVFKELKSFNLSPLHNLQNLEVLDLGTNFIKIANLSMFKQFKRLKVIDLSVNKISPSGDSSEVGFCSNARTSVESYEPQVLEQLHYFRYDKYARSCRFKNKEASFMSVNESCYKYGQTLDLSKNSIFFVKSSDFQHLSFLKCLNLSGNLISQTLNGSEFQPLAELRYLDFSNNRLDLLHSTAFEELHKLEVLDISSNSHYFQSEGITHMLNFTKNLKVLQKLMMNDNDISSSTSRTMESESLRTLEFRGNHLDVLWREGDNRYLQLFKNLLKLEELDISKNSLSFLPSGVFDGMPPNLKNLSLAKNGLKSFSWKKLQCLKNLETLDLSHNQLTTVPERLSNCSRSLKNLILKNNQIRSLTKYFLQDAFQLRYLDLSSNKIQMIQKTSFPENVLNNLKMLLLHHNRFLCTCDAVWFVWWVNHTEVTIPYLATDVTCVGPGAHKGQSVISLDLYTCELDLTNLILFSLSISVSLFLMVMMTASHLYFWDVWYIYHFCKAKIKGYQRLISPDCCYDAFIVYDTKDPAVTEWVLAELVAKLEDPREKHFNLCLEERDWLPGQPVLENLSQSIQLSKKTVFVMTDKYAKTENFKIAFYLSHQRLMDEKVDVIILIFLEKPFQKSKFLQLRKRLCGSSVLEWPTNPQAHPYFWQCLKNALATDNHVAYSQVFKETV
Procedure: as §1, §2

Row | Molecule | IC50 [1] | IC50 [2] | IC50 [3]
1 | COc1cc(-c2[nH]c3ccc(C4CCN(CCNC(=O)CCC(=O)NCCN5CCC(c6ccc7[nH]c(-c8cc(OC)c9ncnn9c8)c(C(C)C)c7c6)CC5)CC4)cc3c2C(C)C)cn2ncnc12 [Example 11, N1,N4-bis(2-(4-(3-isopropyl-2-(8-methoxy-[1,2,4]triazolo[1,5-a]pyridin-6-yl)-1H-indol-5-yl)piperidin-1-yl)ethyl)succinamide] | 4600 nM | 143 nM | 17 nM
2 | COc1cc(-c2[nH]c3ccc(C4CCN(CCNC(=O)CCCCCCCC(=O)NCCN5CCC(c6ccc7[nH]c(-c8cc(OC)c9ncnn9c8)c(C(C)C)c7c6)CC5)CC4)cc3c2C(C)C)cn2ncnc12 [Example 5, N1,N9-bis(2-(4-(3-isopropyl-2-(8-methoxy-[1,2,4]triazolo[1,5-a]pyridin-6-yl)-1H-indol-5-yl)piperidin-1-yl)ethyl)nonanediamide] | 140 nM | 0.18 nM | 0.15 nM
3 | COc1cc(-c2[nH]c3ccc(C4CCN(CCNC(=O)CCCCCCCCCCCCC(=O)NCCN5CCC(c6ccc7[nH]c(-c8cc(OC)c9ncnn9c8)c(C(C)C)c7c6)CC5)CC4)cc3c2C(C)C)cn2ncnc12 [Example 2, N1,N14-bis(2-(4-(3-isopropyl-2-(8-methoxy-[1,2,4]triazolo[1,5-a]pyridin-6-yl)-1H-indol-5-yl)piperidin-1-yl)ethyl)tetradecanediamide] | 149 nM | 1.6 nM | 1.9 nM
4 | COc1cc(-c2[nH]c3ccc(C4CCN(CCNC(=O)CCCCCC(=O)NCCN5CCC(c6ccc7[nH]c(-c8cc(OC)c9ncnn9c8)c(C(C)C)c7c6)CC5)CC4)cc3c2C(C)C)cn2ncnc12 [Example 8, N1,N7-bis(2-(4-(3-isopropyl-2-(8-methoxy-[1,2,4]triazolo[1,5-a]pyridin-6-yl)-1H-indol-5-yl)piperidin-1-yl)ethyl)heptanediamide] | 175 nM | 0.28 nM | 0.19 nM
5 | COc1cc(-c2[nH]c3ccc(C4CCN(CCN)CC4)cc3c2C(C)C)cn2ncnc12 [Comparator Compound C4, 2-(4-(3-isopropyl-2-(8-methoxy-[1,2,4]triazolo[1,5-a]pyridin-6-yl)-1H-indol-5-yl)piperidin-1-yl)ethan-1-amine, reference compound] | 1970 nM | 2.1 nM | 0.6 nM
6 | N1,N12-bis(2-(4-(3-isopropyl-2-(8-methoxy-[1,2,4]triazolo[1,5-a]pyridin-6-yl)-1H-indol-5-yl)piperidin-1-yl)ethyl)dodecanediamide [Example 10] | 44 nM | 1.1 nM | 1.3 nM
7 | COc1cc(-c2[nH]c3ccc(C4CCN(CCNC(C)=O)CC4)cc3c2C(C)C)cn2ncnc12 [Comparator Compound C5, N-(2-(4-(3-isopropyl-2-(8-methoxy-[1,2,4]triazolo[1,5-a]pyridin-6-yl)-1H-indol-5-yl)piperidin-1-yl)ethyl)acetamide, reference compound] | 3570 nM | 1.8 nM | 0.95 nM

From patent US11998537B2, “Substituted indole dimer compounds” (BRISTOL-MYERS SQUIBB COMPANY, priority 2018, dated 2024)
